Laboratory results reported in ChEMBL document CHEMBL1125509, “Synthesis and biological activity of CCK heptapeptide analogues. Effects of conformational constraints and standard modifications on receptor subtype selectivity, functional activity in vitro, and appetite suppression in vivo” (J Med Chem, 1992).
The source made the active and inactive calls. No cut-off for these calls is given here. *1 amine or outer side, *2 acyl side, *3 side chain or, on linkers, in order; H or OH if unused. Where a SMILES comes first, the peptide text is derived from it. [ ]: non-standard residue; d: D form. The star is where a group is joined. Hydrocinnamoyl(4-OSO3H) = O=C(CCc1ccc(OS(=O)(=O)O)cc1)*; X2 = O=C([C@@H]1CC(OS(=O)(=O)O)CN1[*:1])[*:2]; X5 = CCC[C@H]1CCN([*:1])[C@@H]1C(=O)[*:2]; X4 = O=C(c1ccc2cc(OS(=O)(=O)O)ccc2c1)*; X1 = CCCC1CCN([*:1])[C@@H]1C(=O)[*:2]; X6 = O=C(/C=C/c1ccc(OS(=O)(=O)O)cc1)*; X3 = O=C(/C(=C/c1ccccc1)N[*:1])[*:2]; NMeF = CN[C@@H](Cc1ccccc1)C(=O)O; NMeD = CN[C@@H](CC(=O)O)C(=O)O; NMeL = CN[C@@H](CC(C)C)C(=O)O; Nle = CCCC[C@H](N)C(=O)O; Ava = NCCCCC(=O)O

Experiments:
[1] = target: T1, Cholecystokinin receptor type A (Cavia porcellus, UniProt Q63931); experiment: Evaluated in vitro for its binding affinity towards cholecystokinin type A receptor of guinea pig pancreas
T1 sequence (Q63931 whole entry): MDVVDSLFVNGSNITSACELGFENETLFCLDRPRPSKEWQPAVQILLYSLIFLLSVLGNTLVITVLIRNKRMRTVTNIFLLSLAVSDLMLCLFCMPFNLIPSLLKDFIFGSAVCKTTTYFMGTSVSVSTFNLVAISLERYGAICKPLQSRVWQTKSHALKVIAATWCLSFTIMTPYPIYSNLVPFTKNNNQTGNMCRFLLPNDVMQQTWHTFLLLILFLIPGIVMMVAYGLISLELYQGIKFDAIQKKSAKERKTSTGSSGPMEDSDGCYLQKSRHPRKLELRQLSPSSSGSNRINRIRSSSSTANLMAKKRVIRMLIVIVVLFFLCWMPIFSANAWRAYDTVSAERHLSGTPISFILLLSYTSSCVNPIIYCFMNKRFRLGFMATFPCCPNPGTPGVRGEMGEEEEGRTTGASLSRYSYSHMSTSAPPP

[2] = target: T2, Cholecystokinin receptor type A (Cavia porcellus) (UniProt Q63931); experiment: Ratio of binding affinities for CCK-A receptor of guinea pig pancreas (IC50(nM)) to CCK-B receptor of guinea pig cortex (IC50(nM)); assay type: tissue-based
T2 sequence (whole entry): T1 sequence (Q63931 whole entry)

[3] = target: Cholecystokinin receptor (Rattus norvegicus) (UniProt P30551+P30553); experiment: Evaluated for effective dose required for suppression of food intake in rat (0-60 min); assay type: functional
[4] = test system: Rattus norvegicus; experiment: Compound was evaluated for % suppression (at 30 nmol/kg) of food intake in rat (360-420 min); not significant; assay type: functional, organism-based
[5] = test system: Cholecystokinin receptor type A (Cavia porcellus); experiment: Evaluated in vitro for maximal stimulatory activity for PI hydrolysis relative to CCK-8 in guinea pig tissue
[6] = target: Cholecystokinin receptor type A (Cavia porcellus); experiment: Evaluated in vitro for maximal stimulatory activity for amylase release relative to CCK-8 in guinea pig tissue
[7] = test system: Cholecystokinin receptor type A (Cavia porcellus); experiment: Ratio for CCK-A receptor of guinea pig pancreas (IC50(nM)) to CCK-B receptor of guinea pig cortex (IC50(nM))
[8] = organism: Cavia porcellus; experiment: In vitro maximal stimulatory activity for amylase release relative to CCK-8 in guinea pig tissue at 10 uM; assay type: functional
[9] = organism: Cavia porcellus; experiment: In vitro maximal stimulatory activity for amylase release relative to CCK-8 in guinea pig tissue at 20 nM; assay type: functional
[10] = organism: Cavia porcellus; experiment: In vitro maximal stimulatory activity for amylase release relative to CCK-8 in guinea pig tissue at 5 nM; assay type: functional
[11] = organism: Cavia porcellus; experiment: In vitro maximal stimulatory activity for amylase release relative to CCK-8 in guinea pig tissue at 3 uM; assay type: functional
[12] = organism: Cavia porcellus; experiment: (§1) Compound (10e-4 M) was evaluated in vitro for maximal stimulatory activity for PI hydrolysis relative to CCK-8 in guinea pig tissue; assay type: functional
[13] = test system: Rattus norvegicus; experiment: Compound was evaluated for % suppression (at 30 nmol/kg) of food intake in rat (360-420 min); assay type: functional
[14] = as §1; assay type: functional

IC50 [1] [nM]	Max response [5] [%]	EC50 [6] [nM]	Ratio [7]	Compound	other results
0.77	100	0.99	–	CCCC[C@H](NC(=O)CCc1ccc(OS(=O)(=O)O)cc1)C(=O)NCC(=O)N[C@@H](Cc1c[nH]c2ccccc12)C(=O)N[C@@H](CCCC)C(=O)N[C@@H](CC(=O)O)C(=O)N[C@@H](Cc1ccccc1)C(N)=O	Ratio [2]: 1.53; ED50 [3]: 0.00398 µmol/kg; Supression [4]: inactive
130	86	71	9	CCCC[C@H](NC(=O)[C@H](Cc1c[nH]c2ccccc12)NC(=O)CN1CC[C@H](NC(=O)CCc2ccc(OS(=O)(=O)O)cc2)C1=O)C(=O)N[C@@H](CC(=O)O)C(=O)N[C@@H](Cc1ccccc1)C(N)=O	–
900	16	–	0.04	CCCC[C@H](NC(=O)c1ccc2cc(OS(=O)(=O)O)ccc2c1)C(=O)NCC(=O)N[C@@H](Cc1c[nH]c2ccccc12)C(=O)N[C@@H](CCCC)C(=O)N[C@@H](CC(=O)O)C(=O)N[C@@H](Cc1ccccc1)C(N)=O (X4-[Nle]GW[Nle]DF-NH2)	Stimulation [8]: 44%
0.67	120	0.64	1.1	CCCC[C@H](NC(=O)[C@H](Cc1c[nH]c2ccccc12)NC(=O)CNC(=O)[C@H](CC(C)C)NC(=O)CCc1ccc(OS(=O)(=O)O)cc1)C(=O)N[C@@H](CC(=O)O)C(=O)N[C@@H](Cc1ccccc1)C(N)=O ({Hydrocinnamoyl(4-OSO3H)}-LGW[Nle]DF-NH2)	–
7.3	–	–	–	CCC[C@H]1CCN(C(=O)[C@H](Cc2c[nH]c3ccccc23)NC(=O)CNC(=O)[C@@H]2CCCN2C(=O)CCc2ccc(OS(=O)(=O)O)cc2)[C@@H]1C(=O)N[C@@H](CC(=O)O)C(=O)N(C)[C@@H](Cc1ccccc1)C(N)=O ({Hydrocinnamoyl(4-OSO3H)}-PGW[X5]D[NMeF]-NH2) [listing 1 of 2 here]	–
–	–	–	0.1	CCCC[C@H](NC(=O)CCc1ccc(OS(=O)(=O)O)cc1)C(=O)NCC(=O)N[C@@H](Cc1c[nH]c2ccccc12)C(=O)N[C@@H](CCCC)C(=O)N[C@@H](CC(=O)O)C(=O)N(C)[C@@H](Cc1ccccc1)C(N)=O ({Hydrocinnamoyl(4-OSO3H)}-[Nle]GW[Nle]D[NMeF]-NH2)	Max response [12]: 94%; ED50 [3]: 0.00245 µmol/kg; Supression [13]: 30%

More lines, now with the values behind:

Compound	IC50 [1] [nM]	Max response [5] [%]	EC50 [6] [nM]	Ratio [7]	other results
CCCC[C@H](NC(=O)[C@H](Cc1c[nH]c2ccccc12)NC(=O)CNC(=O)[C@@H](CCCC)NC(=O)CCc1ccc(OS(=O)(=O)O)cc1)C(=O)N[C@@H](CC(=O)O)C(=O)N[C@@H](Cc1ccccc1)C(N)=O	150	52	–	18.5	–
CCCC[C@H](NC(=O)/C=C/c1ccc(OS(=O)(=O)O)cc1)C(=O)NCC(=O)N[C@@H](Cc1c[nH]c2ccccc12)C(=O)N[C@@H](CCCC)C(=O)N[C@@H](CC(=O)O)C(=O)N[C@@H](Cc1ccccc1)C(N)=O (X6-[Nle]GW[Nle]DF-NH2)	23	–	–	–	Stimulation [9]: 105%
CC(C)C[C@H](NC(=O)[C@H](Cc1c[nH]c2ccccc12)NC(=O)CCCCNC(=O)CCc1ccc(OS(=O)(=O)O)cc1)C(=O)N[C@@H](CC(=O)O)C(=O)N[C@@H](Cc1ccccc1)C(N)=O ({Hydrocinnamoyl(4-OSO3H)-Ava}-WLDF-NH2)	150	64	140	143	–
CCC[C@H]1CCN(C(=O)[C@H](Cc2c[nH]c3ccccc23)NC(=O)CNC(=O)[C@@H]2CCCN2C(=O)CCc2ccc(OS(=O)(=O)O)cc2)[C@@H]1C(=O)N[C@@H](CC(=O)O)C(=O)N(C)[C@@H](Cc1ccccc1)C(N)=O ({Hydrocinnamoyl(4-OSO3H)}-PGW[X5]D[NMeF]-NH2) [listing 2 of 2 here]	–	–	–	–	Stimulation [10]: 83%
CCCC[C@H](NC(=O)CCc1ccc(OS(=O)(=O)O)cc1)C(=O)NCC(=O)N[C@@H](Cc1c[nH]c2ccccc12)C(=O)N1CCC[C@H]1C(=O)N[C@@H](CC(=O)O)C(=O)N(C)[C@@H](Cc1ccccc1)C(N)=O ({Hydrocinnamoyl(4-OSO3H)}-[Nle]GWPD[NMeF]-NH2)	81	–	–	–	Stimulation [11]: 98%
CCCC[C@H](NC(=O)CCc1ccc(OS(=O)(=O)O)cc1)C(=O)NCC(=O)N[C@@H](Cc1c[nH]c2ccccc12)C(=O)N(C)[C@@H](CC(C)C)C(=O)N[C@@H](CC(=O)O)C(=O)N[C@@H](Cc1ccccc1)C(N)=O ({Hydrocinnamoyl(4-OSO3H)}-[Nle]GW[NMeL]DF-NH2)	140	80	15	625	–
CCCC[C@H](NC(=O)CCc1ccc(OS(=O)(=O)O)cc1)C(=O)NCC(=O)N[C@@H](Cc1c[nH]c2ccccc12)C(=O)N[C@@H](CCCC)C(=O)N[C@@H](CC(=O)O)C(=O)N/C(=C\c1ccccc1)C(N)=O ({Hydrocinnamoyl(4-OSO3H)}-[Nle]GW[Nle]D[X3]-NH2)	–	–	–	0.62	Max response [14]: 69%
CCCC[C@H](NC(=O)CCc1ccc(OS(=O)(=O)O)cc1)C(=O)NCC(=O)N[C@@H](Cc1c[nH]c2ccccc12)C(=O)N[C@@H](CCCC)C(=O)N(C)[C@@H](CC(=O)O)C(=O)N[C@@H](Cc1ccccc1)C(N)=O ({Hydrocinnamoyl(4-OSO3H)}-[Nle]GW[Nle][NMeD]F-NH2)	–	–	–	–	Max response [12]: 100%; Supression [13]: 29%
CCCC[C@H](NC(=O)CCc1ccc(OS(=O)(=O)O)cc1)C(=O)NCC(=O)N[C@@H](Cc1c[nH]c2ccccc12)C(=O)N[C@@H](CCCC)C(=O)N1CC(OS(=O)(=O)O)C[C@H]1C(=O)N[C@@H](Cc1ccccc1)C(N)=O (stereo partly specified) ({Hydrocinnamoyl(4-OSO3H)}-[Nle]GW[Nle][X2]F-NH2)	–	–	–	0.03	Max response [12]: 82%; ED50 [3]: > 1 µmol/kg; Supression [4]: inactive
CCCC[C@H](NC(=O)CCc1ccc(OS(=O)(=O)O)cc1)C(=O)NCC(=O)N[C@@H](Cc1c[nH]c2ccccc12)C(=O)N1CCC(CCC)[C@H]1C(=O)N[C@@H](CC(=O)O)C(=O)N(C)[C@@H](Cc1ccccc1)C(N)=O (stereo partly specified) ({Hydrocinnamoyl(4-OSO3H)}-[Nle]GW[X1]D[NMeF]-NH2)	–	–	–	14.3	Max response [12]: 83%; ED50 [3]: 0.00877 µmol/kg; Supression [4]: inactive
